Experimental data reported in patent US20260167632A1, “NICOTINAMIDE DERIVATIVES FOR USE IN TREATING DISORDERS ASSOCIATED WITH KCNK13 ACTIVITY” (Cerevance, Inc., priority 2022, published 2026).

What was measured:
[1] = system: Mouse primary microglia IL-1β; assay: Inflammasome assay in primary mouse postnatal microglia using LPS/0 mM extracellular K+ (IL-1β release); type: cell-based; conditions: 100 ng/mL LPS 3.5 h, compound 30 min, K+ free buffer 2 h, IL-1β levels by MesoScale
Method: 3. Inflammasome Assay in Primary Mouse Postnatal Microglia Using LPS/0 mM Extracellular K^+
Newly shaken mouse microglia cells were added to a 96-well plate and left to adhere overnight. After this time, 100 ng/mL LPS was added to each well and incubated at 37° C. for 3.5 hours, at which point compound addition was undertaken and plates incubated at 37° C. for an additional 30 minutes. After this time, the medium in each well was removed and replaced with K^+ free buffer and the plates then incubated for an additional 2 hours at 37° C. Measurement of IL-1β levels in the sample wells was undertaken using MesoScale Discovery™ MESO QuickPlex SQ 120 and IL-1β antibodies from mouse IL-1β DuoSet ELISA kit (R&D System, DY401).

human KCNK13 = molecular target: T1, human KCNK13 (Homo sapiens, UniProt Q9HB14); assay: KCNK13 antagonist activity, thallium flux FLIPR assay in HEK 293 cells stably expressing human KCNK13; type: cell-based; conditions: HEK 293 cells stably expressing human KCNK13, Tl+ sensitive dye, compound 15 min before thallium sulfate, ten point curves; read-out: hKCNK13 IC50
T1 construct: expressed in transfected cells
T1 sequence (Q9HB14 1-408): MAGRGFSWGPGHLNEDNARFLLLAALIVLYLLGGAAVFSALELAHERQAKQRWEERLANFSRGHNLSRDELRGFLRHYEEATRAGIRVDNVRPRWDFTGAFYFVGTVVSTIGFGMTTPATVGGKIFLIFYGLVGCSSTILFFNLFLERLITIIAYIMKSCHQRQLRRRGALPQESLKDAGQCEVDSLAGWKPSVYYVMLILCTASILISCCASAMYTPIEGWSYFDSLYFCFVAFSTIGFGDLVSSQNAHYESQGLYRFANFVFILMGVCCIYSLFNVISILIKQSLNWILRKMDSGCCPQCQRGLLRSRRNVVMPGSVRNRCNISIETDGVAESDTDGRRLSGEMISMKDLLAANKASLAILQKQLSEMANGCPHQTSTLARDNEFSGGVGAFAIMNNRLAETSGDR
Procedure, shortened: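 HEK 293 cells stably expressing human KCNK13, loaded with Tl+-sensitive dye 1 h at room temperature, then exposed to compound for 15 min before thallium sulfate stimulus. Tl+ influx read by FLIPR fluorescence; IC50 from ten-point half-log curves starting at 100 µM, each point averaging two wells.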

IC50 [1] | IC50 (human KCNK13) | Structure (SMILES)
≤ 600 nM | ≤ 500 nM | COc1ncc(F)cc1C(=O)N(C)C1CCc2ccccc21 (single isomer, unassigned) [Example 16, N-(2,3-dihydro-1H-inden-1-yl)-5-fluoro-2-methoxy-N-methylnicotinamide]
≤ 150 nM | ≤ 50 nM | COc1ncc(Cl)cc1C(=O)N(C)Cc1cccc(F)c1 [Example 24, 5-chloro-N-(3-fluorobenzyl)-2-methoxy-N-methylnicotinamide]
≤ 300 nM | ≤ 200 nM | COc1ncc(F)cc1C(=O)N(C)Cc1ccc(F)cc1F [Example 39, N-(2,4-difluorobenzyl)-5-fluoro-2-methoxy-N-methylnicotinamide]
– | ≤ 200 nM | O=S(=O)(c1cc(F)cnc1OC(F)F)N1CCc2ccc(F)cc2C1 [Example 111, 2-((2-(difluoromethoxy)-5-fluoropyridin-3-yl)sulfonyl)-7-fluoro-1,2,3,4-tetrahydroisoquinoline]
– | ≤ 100 nM | CN(Cc1cccc(F)c1)S(=O)(=O)c1cc(F)cnc1OC(F)F [Example 112, 2-(difluoromethoxy)-5-fluoro-N-(3-fluorobenzyl)-N-methylpyridine-3-sulfonamide]
– | ≤ 500 nM | CN(Cc1cccc(F)c1)S(=O)(=O)c1cc(Cl)cnc1OC(F)F [Example 113, 5-chloro-2-(difluoromethoxy)-N-(3-fluorobenzyl)-N-methylpyridine-3-sulfonamide]
– | ≤ 200 nM | O=S(=O)(c1cc(F)cnc1OC(F)F)N1CCOc2ccc(F)cc2C1 [Example 114, 4-((2-(difluoromethoxy)-5-fluoropyridin-3-yl)sulfonyl)-7-fluoro-2,3,4,5-tetrahydrobenzo[f][1,4]oxazepine]
– | ≤ 500 nM | O=S(=O)(c1cc(Cl)cnc1OC(F)F)N1CCOc2ccc(F)cc2C1 [Example 115, 4-((5-chloro-2-(difluoromethoxy)pyridin-3-yl)sulfonyl)-7-fluoro-2,3,4,5-tetrahydrobenzo[f][1,4]oxazepine]
– | ≤ 500 nM | O=S(=O)(c1cc(F)cnc1OC(F)F)N1CCc2cc(F)cc(F)c2C1 [Example 116]
– | ≤ 200 nM | COc1ncc(Cl)cc1C(=O)N(C)Cc1c(F)cccc1F [Example 117, 5-chloro-N-(2,6-difluorobenzyl)-2-methoxy-N-methylnicotinamide]
– | ≤ 200 nM | COc1ncc(Cl)cc1C(=O)N(C)Cc1c(Cl)cccc1Cl [Example 118, 5-chloro-N-(2,6-dichlorobenzyl)-2-methoxy-N-methylnicotinamide]
– | ≤ 500 nM | CN(C(=O)c1cc(Cl)cnc1OC(F)F)C1CS(=O)(=O)c2ccccc21 (stereo not shown) [Example 119, 5-chloro-2-(difluoromethoxy)-N-(1,1-dioxido-2,3-dihydrobenzo[b]thiophen-3-yl)-N-methylnicotinamide]
– | ≤ 200 nM | N#Cc1cc(F)ccc1S(=O)(=O)N1CCOc2ccc(F)cc2C1 [Example 120, 5-fluoro-2-((7-fluoro-2,3-dihydrobenzo[f][1,4]oxazepin-4(5H)-yl)sulfonyl)benzonitrile]
